Patent publication US20250197387A1, “BCL-XL DEGRADERS AND USES THEREOF” (Kymera Therapeutics, Inc., priority 2021, published 2025)

What was measured:
Assay type in all cases: cell-based
BCL-XL [1] = biological target: T1, BCL-XL (Homo sapiens, UniProt Q07817); assay: BCL-XL degradation assay, western blot in MOLT-4 cells, 16 h; conditions: western blot, MOLT-4 cells, 16 h; for Dmax: read-out: Bcl-xL WB in MOLT-4 degradation 16 h: Average Dmax %; for DC50: read-out: Bcl-xL WB in MOLT-4 degradation 16 h: Mean external-Abs DC50
T1 construct: endogenous in cells; host or cells: MOLT-4
T1 sequence (Q07817 whole entry): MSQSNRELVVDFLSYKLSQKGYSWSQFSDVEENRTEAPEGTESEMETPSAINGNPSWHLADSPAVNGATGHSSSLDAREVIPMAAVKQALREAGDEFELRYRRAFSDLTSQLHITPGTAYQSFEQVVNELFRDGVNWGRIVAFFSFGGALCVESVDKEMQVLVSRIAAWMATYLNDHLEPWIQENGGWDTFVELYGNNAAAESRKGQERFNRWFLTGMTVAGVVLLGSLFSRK
Method in brief: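 MOLT-4 cells treated with compounds at 0.02-10 μM final for 16 hr at 37° C; lysates analysed by western blot with anti-BCL-xL, beta-actin and GAPDH loading controls, infrared imaging and densitometry; DC50 and Dmax % reported as letter codes.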

Caki-2 cells = assay: CTG (CellTiter-Glo) cell viability assay, Caki-2; conditions: Homo sapiens, 72 h, 3 day incubation, read-out: CTG Chempartner - Caki-2 3 day: Average external-IC50
Method in brief: (§1)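 MOLT-4 and Caki-2 cells were seeded at 10,000 per well and treated with a 9-point, 1:3 dilution series from 10 μM top concentration (0.2% DMSO). After 3 days at 37 °C, 5% CO2, viability was read by CellTiter-Glo luminescence and IC50 fitted by three-parameter logistic.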

BCL-XL [2] = biological target: T1, BCL-XL; assay: Bcl-xL ELISA degradation in MOLT-4 cells, 6 h; conditions: for DC50: read-out: Bcl-xL ELISA in MOLT-4 degradation 6 h: Mean external-Abs DC50
Method: The letter codes for BCL-XL DC50 include: A (<0.01 μM); B (0.01-0.1 μM); C (>[…]); D (>0.5-1.0 μM); and E (>1.0 μM). The letter codes for Dmax % include A (>75%); B (50 to 75%); C (<50%).

MOLT-4 cells = assay: CTG (CellTiter-Glo) cell viability assay, MOLT-4; conditions: Homo sapiens, MOLT-4, 72 h, 3 day incubation, read-out: CTG Cell Viability Assay - MOLT-4 3 day: Average external-IC50
Method in brief: as §1

Row | Dmax (BCL-XL [1]) [%] | DC50 (BCL-XL [1]) [nM] | Dmax (BCL-XL [2]) [%] | DC50 (BCL-XL [2]) [nM] | IC50 (MOLT-4 cells) [nM] | SMILES | IC50 (Caki-2 cells) [nM]
1 | > 75 | 10 to 100 | 50 to 75 | 10 to 100 | 100 to 1000 | Cc1ncsc1-c1ccc([C@H](C)NC(=O)[C@@H]2C[C@@H](O)CN2C(=O)[C@@H](NC(=O)CCCCCCNC(=O)c2nc(N3CCc4cccc(C(=O)Nc5nc6ccccc6s5)c4C3)ccc2-c2cnn(CC3CCCCC3)c2C)C(C)(C)C)cc1 [I-96] | > 10000
2 | > 75 | 10 to 100 | – | – | 100 to 1000 | Cc1cc(N(C)c2ccc(-c3cnn(CC4CCCCC4)c3C)c(C(=O)NS(=O)(=O)CCCCCC(=O)N[C@H](C(=O)N3C[C@H](O)C[C@H]3C(=O)N[C@@H](C)c3ccc(-c4scnc4C)cc3)C(C)(C)C)n2)nnc1Nc1nc2ccccc2s1 [I-120] | > 10000
3 | > 75 | < 10 | > 75 | 10 to 100 | < 100 | Cc1ncsc1-c1ccc(CNC(=O)[C@@H]2C[C@@H](O)CN2C(=O)[C@@H](NC(=O)C2(F)CC2)C(C)(C)C)c(OCCCCCS(=O)(=O)NC(=O)c2nc(N3CCc4cccc(C(=O)Nc5nc6ccccc6s5)c4C3)ccc2-c2cnn(CC34CC5CC(CC(C5)C3)C4)c2C)c1 [I-121] | 100 to 1000
4 | > 75 | < 10 | > 75 | 10 to 100 | < 100 | Cc1ncsc1-c1ccc([C@H](C)NC(=O)[C@@H]2C[C@@H](O)CN2C(=O)[C@@H](NC(=O)CCc2ccc(S(=O)(=O)NC(=O)c3nc(N4CCc5cccc(C(=O)Nc6nc7ccccc7s6)c5C4)ccc3-c3cnn(CC4CCCCC4)c3C)cc2)C(C)(C)C)cc1 [I-123] | 1000 to 10000
5 | > 75 | < 10 | – | – | < 100 | Cc1ncsc1-c1ccc([C@H](C)NC(=O)[C@@H]2C[C@@H](O)CN2C(=O)[C@@H](NC(=O)CCCCCCCS(=O)(=O)NC(=O)c2nc(N3CCc4cccc(C(=O)Nc5nc6cccnc6s5)c4C3)ccc2-c2cnn(CC34CC5CC(CC(C5)C3)C4)c2C)C(C)(C)C)cc1 [I-141] | 1000 to 10000
6 | > 75 | < 10 | – | – | < 100 | Cc1ncsc1-c1ccc([C@H](C)NC(=O)[C@@H]2C[C@@H](O)CN2C(=O)[C@@H](NC(=O)c2ccc(CCS(=O)(=O)NC(=O)c3nc(N4CCc5cccc(C(=O)Nc6nc7ccccc7s6)c5C4)ccc3-c3cnn(CC4CCCCC4)c3C)cc2)C(C)(C)C)cc1 [I-143] | 1000 to 10000
7 | 50 to 75 | 100 to 500 | < 50 | > 1000 | 1000 to 3000 | Cc1ncsc1-c1ccc(CNC(=O)[C@@H]2C[C@@H](O)CC2C(=O)[C@@H](NC(=O)C2(F)CC2)C(C)(C)C)c(OCCCCCCNC(=O)c2nc(N3CCc4cccc(C(=O)Nc5nc6ccccc6s5)c4C3)ccc2-c2cnn(CC3CCCCC3)c2C)c1 (stereo partly drawn) [I-158] | > 10000
8 | > 75 | < 10 | > 75 | 10 to 100 | < 100 | Cc1ncsc1-c1ccc(CNC(=O)[C@@H]2C[C@@H](O)CN2C(=O)[C@@H](NC(=O)C2(F)CC2)C(C)(C)C)c(OCCCCCS(=O)(=O)NC(=O)c2nc(N3CCc4cccc(C(=O)Nc5nc6ccccc6s5)c4C3)ccc2-c2cnn(CC3CCCCC3)c2C)c1 [I-177] | 1000 to 10000
9 | > 75 | 10 to 100 | 50 to 75 | 10 to 100 | 100 to 1000 | Cc1ncsc1-c1ccc([C@H](C)NC(=O)[C@@H]2C[C@@H](O)CN2C(=O)[C@@H](c2cc(OC3CCN(CCCS(=O)(=O)NC(=O)c4nc(N5CCc6cccc(C(=O)Nc7nc8ccccc8s7)c6C5)ccc4-c4cnn(CC5CCCCC5)c4C)CC3)no2)C(C)C)cc1 [I-178] | > 10000
10 | > 75 | 10 to 100 | > 75 | 10 to 100 | 100 to 1000 | Cc1ncsc1-c1ccc([C@H](C)NC(=O)[C@@H]2C[C@@H](O)CN2C(=O)[C@H](NC(=O)CCCCCCCS(=O)(=O)NC(=O)c2nc(N3CCc4cccc(C(=O)Nc5nc6ccccc6s5)c4C3)ccc2-c2cnn(CC(C)C)c2C)C(C)(C)C)cc1 [I-179] | > 10000
11 | > 75 | < 10 | 50 to 75 | 100 to 500 | < 100 | Cc1ncsc1-c1ccc(CNC(=O)[C@@H]2C[C@@H](O)CN2C(=O)[C@@H](NC(=O)C2(F)CC2)C(C)(C)C)c(OCCC2CCN(CC[C@H](CSc3ccccc3)Nc3ccc(S(=O)(=O)NC(=O)c4ccc(N5CCN(CC6=C(c7ccc(Cl)cc7)CCC(C)(C)C6)CC5)cc4)cc3S(=O)(=O)C(F)(F)F)CC2)c1 [I-183] | > 10000
12 | > 75 | 10 to 100 | 50 to 75 | 10 to 100 | 100 to 1000 | Cc1ncsc1-c1ccc(CNC(=O)[C@@H]2C[C@@H](O)CN2C(=O)[C@@H](NC(=O)C2(F)CC2)C(C)(C)C)c(OCCCCCS(=O)(=O)NC(=O)c2nc(N3CCc4cccc(C(=O)Nc5nc6cccnc6s5)c4C3)ccc2-c2cnn(CC3CCCCC3)c2C)c1 [I-187] | > 10000
13 | 50 to 75 | < 10 | – | – | 100 to 1000 | Cc1ncsc1-c1ccc([C@H](C)NC(=O)[C@@H]2C[C@@H](O)CN2C(=O)[C@@H](NC(=O)N2CC3(C2)CN(c2ccc(S(=O)(=O)NC(=O)c4nc(N5CCc6cccc(C(=O)Nc7nc8ccccc8s7)c6C5)ccc4-c4cnn(CC5CCCCC5)c4C)cc2)C3)C(C)(C)C)cc1 [I-196] | 1000 to 10000
14 | > 75 | 10 to 100 | – | – | < 100 | Cc1cc([C@@H](C(=O)N2C[C@H](O)C[C@H]2C(=O)NCc2ccc(-c3scnc3C)cc2OCCCCCCNC(=O)c2nc(N3CCc4cccc(C(=O)Nc5nc6ccccc6s5)c4C3)ccc2-c2cnn(CC3CCCCC3)c2C)C(C)C)on1 [I-198] | > 10000
15 | > 75 | 10 to 100 | – | – | 100 to 1000 | Cc1ncsc1-c1ccc([C@H](CC(=O)NCCCCCNC(=O)c2nc(N3CCc4cccc(C(=O)Nc5nc6ccccc6s5)c4C3)ccc2-c2cnn(CC3CCCCC3)c2C)NC(=O)[C@@H]2C[C@@H](O)CN2C(=O)[C@@H](NC(=O)C2(F)CC2)C(C)(C)C)cc1 [I-199] | > 10000
16 | > 75 | 10 to 100 | – | – | 100 to 1000 | Cc1ncsc1-c1ccc(CNC(=O)[C@@H]2C[C@@H](O)CN2C(=O)[C@@H](NC(=O)C2(F)CC2)C(C)(C)C)c(OCCN2CCN(C(=O)c3nc(N4CCc5cccc(C(=O)Nc6nc7ccccc7s6)c5C4)ccc3-c3cnn(CC4CCCCC4)c3C)CC2)c1 [I-201] | > 10000
17 | > 75 | < 10 | – | – | 100 to 1000 | Cc1ncsc1-c1ccc([C@H](C)NC(=O)[C@@H]2C[C@@H](O)CN2C(=O)[C@@H](NC(=O)CCCCCCCCC(=O)N(C)CC#Cc2ccc(OCCCc3sc(N4CCc5cccc(C(=O)Nc6nc7ccccc7s6)c5C4)nc3C(=O)O)c(F)c2)C(C)(C)C)cc1 [I-384] | 1000 to 10000
18 | – | – | > 75 | 100 to 500 | 100 to 1000 | COc1nn(C)c2ccc([C@@H](C)NC(=O)[C@@H]3C[C@@H](O)CN3C(=O)[C@@H](NC(=O)CCCCCS(=O)(=O)NC(=O)c3nc(N4CCc5cccc(C(=O)Nc6nc7cccnc7s6)c5C4)ccc3-c3cnn(CC4CCCCC4)c3C)C(C)(C)C)cc12 [I-490] | > 10000
